Compound | melting point [°C]
COc1cc(OC)c2c(c1)C(C)(C)C1(C=Cc3cc([N+](=O)[O-])cc(OC)c3S1)N2C (centres undefined) | 131
CN1CCC(c2c[nH]c3ccc([N+](=O)[O-])cc23)C(F)C1 (centres undefined) | 105 to 107
CCCCCc1cc(C(=O)O)c(C)o1 | 47 to 48
COC(=O)[C@H]1[C@H](c2ccc3c(c2)OCO3)c2ccc(O)cc2[C@@H]1c1ccc(OC)cc1 (racemic) | 187 to 188
CC1(C)OC2C(Br)=CC(CC(N)=O)C(Br)C2O1 (centres undefined) | 181
O=C(Nc1ccc([N+](=O)[O-])c(C(F)(F)F)c1)c1ccccc1SSc1ccccc1C(=O)Nc1ccc([N+](=O)[O-])c(C(F)(F)F)c1 | 167 to 169
CC(=O)c1cc2c(c(CCl)c1O)CCCC2 | 88 to 90
Oc1ccc2c(c1)C=CC=CS2 | 165 to 166
CCC1(CO)COCOC1 | 95 to 102
C#CCOc1cc(-n2nc(C)c(Cl)c2C)c(Cl)cc1Cl | 156 to 158
Nc1ncc(CN2CC=C(c3ccc(F)cc3)CC2)c(N)n1 | 265
COc1ccc(CC(=O)N[C@@H](C)CO)cc1OC | 122 to 125
CC(C)c1nn(Cc2ccc(Cl)cc2Cl)cc1CCCO | 68 to 69
CCC1CCN(Cc2ccc(COc3cccc4c3CN(C3CCC(=O)NC3=O)C4=O)cc2)CC1 (centres undefined) | 180 to 182
O=C(NCCCCCCNC(=O)c1ccc2c(c1)OCO2)c1ccc2c(c1)OCO2 | 183 to 185
Cc1cc(-n2ccnc2)c2cccc(OCc3c(Cl)ccc(S(=O)(=O)N4CCC[C@H]4C(=O)NCCN4CCCC4)c3Cl)c2n1 | 105
Cc1ccc(Cc2cc(C)c(C)c(=O)n2O)c(C)c1 | 141
Cc1cn(C2OC(CO)C(O)C2O)c(=O)[nH]c1=O (centres undefined) | 244 to 249
O=C(CC1CCCCC1)Nc1ccc2oc3c(c2c1)CCCCC3 | 188 to 189
CCCC(=O)C1=C(O)CC(c2c(C)c(C)c3c(c2C)CC(C)(C)O3)CC1=O (centres undefined) | 83

Compound | melting point [°C]
CC(=O)CN1CCc2c(c(=O)oc3cc(C)ccc23)C1 | 128 to 129
O=C1OCCN1c1ccc([N+](=O)[O-])cc1Cl | 94 to 96
O=C(NCCC(F)(F)F)c1nc(Cl)c(Cl)[nH]1 | 177
COC1CCC2C3CCC4CC(=O)C=CC4(C)C3CCC12C (centres undefined) | 115 to 117
CCCCCN(CCC12CC3CC(CC(C3)C1)C2)C(=O)NCCCc1ccnc2ccccc12 | 80.2 to 102
CS(=O)c1c(C#N)nn(-c2ccc(C(F)(F)F)cc2Cl)c1N (centres undefined) | 146 to 147
CCN1CC[C@H](NC(=O)c2cc(Cl)c(N)c3c2OCCC3)[C@H](OC)C1 (relative stereo) | 154
CSCCC1N=C(c2ccccc2)c2cc(Cl)ccc2NC1=O (centres undefined) | 184
CCOc1ccc2c(c1)cc1n2CCC1 | 101 to 102
Cc1cc2c(-c3cccc(C=O)c3)c(CC(=O)Nc3ccc(Cl)cc3C(F)(F)F)c(=O)oc2cc1Cl | 232 to 233
CCCCCCCCCCCCCCCCCCNC(=O)OCC(CO)NC(=O)OC (centres undefined) | 84 to 85
Cn1ccc2cc(NC(=O)c3cc4cccnc4n3Cc3cccc(F)c3)ccc21 | 191 to 192
COC(=O)[C@H](Cc1cccc2ccccc12)NC(=O)[C@H](CC(=O)OC(C)(C)C)NC(=O)c1cccc(NC(=O)C(Cc2ccc(C#N)cc2)NC(=O)OC(C)(C)C)c1 (mixture of isomers) | 182 to 185
CCOC(=O)c1c(SC)sc2c(F)c(F)c(F)cc2c1=O | 113 to 115
CCCCCCCCCCCCc1c2c(=O)c3ccccc3c2c(CCCCCCCCCCCC)c2c(=O)c3ccccc3c12 | 123 to 124
CSC1NC(=O)N(c2cccs2)C(=O)N1 | 220 to 222
O=c1[nH]cccc1CO | 203 to 205
O=c1c(Oc2ccc(-c3ccncc3)cc2)c(-n2ccnc2)cnn1-c1ccc(Cl)cc1 | 188
CC1(C)OCc2cc(C(=O)CBr)ccc2O1 | 52 to 54
COC(=O)c1cc(Cl)cc(OC)c1O | 105

Now from value to compound:

melting point [°C] | Compound
260 to 263 | COc1ccc(N2CCN(c3ccc(NC(=O)NN)nc3)CC2)cc1
144 to 145 | COc1cc(COc2nn(-c3ccccc3)cc2/C=C/c2cncn2C)ccc1OCc1nc(-c2ccco2)oc1C
100 to 101 | COc1nc(C)n2nc(S(=O)(=O)Cl)nc2c1Cl
94 to 95 | CCCc1c[nH]nc1OCc1ccc2ccccc2n1
144 to 148 | CC(=O)Nc1cccc(NC(=O)C=C(C)C)c1
164 to 167 | COc1ccc(C=C2C(=O)N(C3=NCCS3)c3ccccc32)cc1
142 to 145 | COC(=O)C1=C(CCc2cccs2)NC(CC(=O)N2CCN(C)CC2)=C(C(=O)OC)C1c1c(Cl)cccc1Cl (centres undefined)
124 to 126 | Cc1ccc(S(=O)(=O)NCCCCOc2ccc(-n3cccc3)cc2)cc1
109 to 113 | COc1ccc(NN=C(Sc2ccc(Cl)c(Cl)c2)C(C)=O)cc1
184 to 185 | N#Cc1ccc(C(=O)NNc2ccc(NC(=S)Nc3ccccc3)cc2)cc1
116 to 118 | CCCc1c(OCCCCCOc2ccccc2CCCC(=O)O)ccc2c1OCCC2=O
101 to 102 | CCOC(=O)c1cn(Cc2ccccc2)nc1OCc1ccc(OCc2nc(-c3ccco3)oc2C)cc1
263 to 265 | O=C(O)CCc1c(C=C2C(=O)Nc3ccccc32)[nH]c2c1CCCC2
196 to 197 | N#CN=C(NCNC(=O)c1ccc(Cl)cc1)Nc1cccnc1
128 to 134 | CC(C)(C)OC(=O)N1CCC=C(c2ccnc(C(=O)N(O)Cc3ccccc3)c2)C1
207 | CCOC(=O)c1c(N2CCN(C(=O)c3ccco3)CC2)c2cc(F)cnc2[nH]c1=O
77 to 80 | CC(C)(O)c1nnn(Cc2cccc(C(F)(F)F)c2)c1I
124 | CCOc1ccc(CN2C(=O)C(C)(c3ccccc3Cl)c3cc(Cl)ccc32)c(OC)c1 (centres undefined)
62 to 63 | CCCNc1ncnc2c1ncn2CCCN1CCC(COc2ccccc2)CC1
158 to 159 | CCC1C(=O)N(c2ccccc2)C(=S)N1c1ccc(Oc2ccccc2)cc1 (centres undefined)

melting point [°C] | Compound
131 to 135 | O=C(Nc1ccc(F)cc1F)c1cncc(Sc2cccc([N+](=O)[O-])c2)n1
152 to 156 | CN(C)c1nc2c(NCc3ccccc3)ncnc2n1C1OC(CO)C(O)C1O (centres undefined)
206 to 207 | Nc1c2c(nc3ccccc13)CCc1cn(Cc3ccccc3)nc1-2
234 to 235 | Nc1nnc(-c2ccnc3[nH]c(CCc4ccccc4)cc23)o1
234 to 236 | CNC(=O)Nc1ccc(Cc2cc(C)c(C(=O)c3ccc(Cl)cc3)n2C)nc1
197 to 200 | N#Cc1c[nH]c(-c2ccccc2)c1C#N
124 to 125 | CN(C)C=Nc1nc(OS(=O)(=O)c2ccccc2)ncc1F
65.7 | COc1cccc(S(=O)(=O)N(CC(N)=O)c2ccc(Cl)cc2Cc2ccccc2Cl)c1
106 to 108 | Cc1ccc(S(=O)(=O)Sc2cc(C)c(NC(=O)OC(C)(C)C)cc2C(C)(C)C)cc1
202 to 204 | COCCc1nc2c(N)nc3ccccc3c2n1Cc1ccccc1
127 to 128 | Cc1oc(-c2ccccc2)nc1COc1ccc(OCc2oc(-c3ccccc3)nc2C=O)cc1
220 | CCCC(=O)Nc1n[nH]c2cc(-c3ccc(O)cc3)c(-c3ccccc3)cc12
149 to 150 | CC(=O)N1CCN(Cc2cnc(-c3cc4cccc(NS(=O)(=O)c5cccs5)c4[nH]3)s2)CC1
92 to 95 | COC(=O)c1ccc(COc2cc(F)ccc2N)c(F)c1
98 to 101 | C#Cc1ccc(C)cc1CC(=O)O
109 to 111 | CCCC(=O)c1cnc2c(C)cccc2c1Nc1ccccc1F
114 to 120 | CC(=O)N(C)c1cccc(C2=CCNc3c(C#N)cnn32)c1
85 to 86.5 | CCCc1c(OCCCCC#N)ccc(C(=O)c2ccccc2OC)c1O
189 to 190 | O=c1c2ccccc2ncn1NC(=S)Nc1ccc(Br)cc1
90 to 92 | CCCOc1ccccc1-c1nc(CO)c[nH]1

melting point [°C] | Compound
> 250 | O=c1c2cc(F)c(N3CCCC3)nc2n(-c2cccc(C(F)(F)F)c2)c(=O)n1OCc1ccccc1
175 to 178 | O=C(O)C1=Cc2ccc(Cl)cc2OC1C(F)(F)F (centres undefined)
171 | O=C(O)CNC(=O)c1cn2nc(NCCCN3CCC(OC(c4ccccc4)c4ccccc4)CC3)ccc2n1
105 to 106 | CCCCCS(=O)(=O)NC(=O)/C=C/c1ccc(OCCOC2CC2)cc1Oc1ncc(C(F)(F)F)cc1Cl
141 to 142 | CNc1c(OC)cc(C(O)CS(C)(=O)=O)cc1OC (centres undefined)
137 to 139 | COC(=O)c1ncn(C2OC(COC(=O)c3ccccc3)C(OC(=O)c3ccccc3)C2OC(=O)c2ccccc2)n1 (centres undefined)
268 to 269 | CCCOc1ccc(S(=O)(=O)N(C)C)cc1C1=NC(=O)C2=NC=NC2=N1
221 to 222 | Clc1cc(Cl)c2nc3c4ccccc4c4ccccc4c3nc2c1
160 to 161 | CNC(=O)c1cc(-c2ccc(OC)cc2)nn(CC=Cc2ccccc2)c1=O
213 | COC(=O)c1sccc1S(=O)(=O)N=C(N)NNc1nc(C)cc(C)n1
131 to 133 | CCCCc1nc(Cl)c(C(N)=O)n1Cc1ccc2oc(-c3ccccc3-c3nnn[nH]3)c(Br)c2c1
154 to 156 | Nc1c(CC(=O)O)cc(Cl)cc1Oc1ccccc1F
126 | CC1c2ccccc2NC(=O)N1CCCl (centres undefined)
127 | Cc1ccc(S(=O)(=O)N2C[C@H](O)C[C@H]2CO)cc1
41 to 42 | COC(=O)C1C(=O)CCC1CSc1ccccc1 (centres undefined)
130 | Nc1ccc2c(cnn2Cc2cccc(F)c2)c1
231 to 233 | O=C(O)c1ccc(COCc2csc3nc(C(=O)NCc4ccc(F)c(Br)c4)[nH]c(=O)c23)cc1
118 to 120 | COc1cccc(Nc2nnc(Cc3ccncc3)c3ccccc23)c1
190 to 193 | CNc1nc(Cl)cc(NS(=O)(=O)c2cccc(C(F)(F)F)c2)n1

— a melting point compilation (Tetko et al.; mined from patent text by program, amines drawn as free bases though some values may be those of a salt)
